{"source": "patent US20240301409A1", "about": "“Chemically Modified Small Activating RNA” (RACTIGEN THERAPEUTICS, priority 2021, published 2024)", "test_system": "T24 cells", "assay": "Cellular proliferation assay (CCK8) in T24 cells, alone and combined with Mitomycin C or valrubicin", "type": "cell-based, human", "summary_of_the_method": "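Cells transfected with saRNA RAG1-40-31 (0.1–50 nM) for 24 h, then Mitomycin C or valrubicin (1–10000 nM) added in paired concentrations; single-agent saRNA at 10 nM for 72 h. Viability by CCK8 absorbance at 450 nm after 1 h at 37 °C, as % of blank transfection control.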"}
{"substance": "RAG1-40-31: saRNA duplex: sense fCfCAACUCAUUCUCCAAG*U*C (SEQ ID NO 16); antisense U*A*fCfUfUGGAGAAfUGAGfUfUGG*fC*A (SEQ ID NO 12) (sense CCAACUCAUUCUCCAAGUC; antisense UACUUGGAGAAUGAGUUGGCA; 2'-F and phosphorothioate modifications; modified_base (1)..(2) (1,2)=2′-fluoro; modified_base (17)..(19) (17,18,19)=phosphorothioate (PS) backbone modification; modified_base (2)..(21) (2,3,19,20,21)=phosphorothioate (PS) backbone modification; modified_base (3)..(20) (3,4,5,12,16,17,20)=2′-fluoro)", "values": [{"measurement": "Relative proliferation proportion of T24 cells", "setting": "RAG1-40-31 50 nM + valrubicin 1000 nm", "value": 10.9, "unit": "%"}, {"measurement": "Relative proliferation proportion of T24 cells", "setting": "RAG1-40-31 50 nM + valrubicin 10000 nm", "value": 3.1, "unit": "%"}, {"measurement": "Relative proliferation proportion of T24 cells", "setting": "RAG1-40-31 50 nM, Control (no MMC)", "value": 14.7, "unit": "%"}, {"measurement": "Relative proliferation proportion of T24 cells", "setting": "RAG1-40-31 50 nM, Control (no valrubicin)", "value": 13.8, "unit": "%"}, {"measurement": "Combination Index (CI)", "setting": "T24 cells, RAG1-40-31 0.1 nM + MMC 1 nM", "value": 0.42}, {"measurement": "Combination Index (CI)", "setting": "T24 cells, RAG1-40-31 0.1 nM + MMC 10 nM", "value": 1.59}, {"measurement": "Combination Index (CI)", "setting": "T24 cells, RAG1-40-31 0.1 nM + MMC 100 nM", "value": 0.64}, {"measurement": "Combination Index (CI)", "setting": "T24 cells, RAG1-40-31 0.1 nM + MMC 1000 nM", "value": 0.49}, {"measurement": "Combination Index (CI)", "setting": "T24 cells, RAG1-40-31 0.1 nM + MMC 10000 nM", "value": 1.05}, {"measurement": "Combination Index (CI)", "setting": "T24 cells, RAG1-40-31 0.1 nM + Valrubicin 10000 nM", "value": 0.38}, {"measurement": "Combination Index (CI)", "setting": "T24 cells, RAG1-40-31 0.1 nM + valrubicin 1 nM", "value": 1.9}, {"measurement": "Combination Index (CI)", "setting": "T24 cells, RAG1-40-31 0.1 nM + valrubicin 10 nM", "value": 17.16}, {"measurement": "Combination Index (CI)", "setting": "T24 cells, RAG1-40-31 0.1 nM + valrubicin 100 nM", "value": 11.04}, {"measurement": "Combination Index (CI)", "setting": "T24 cells, RAG1-40-31 0.1 nM + valrubicin 1000 nM", "value": 1.48}, {"measurement": "Combination Index (CI)", "setting": "T24 cells, RAG1-40-31 0.5 nM + MMC 1 nM", "value": 0.97}, {"measurement": "Combination Index (CI)", "setting": "T24 cells, RAG1-40-31 0.5 nM + MMC 10 nM", "value": 1.40}, {"measurement": "Combination Index (CI)", "setting": "T24 cells, RAG1-40-31 0.5 nM + MMC 100 nM", "value": 0.67}, {"measurement": "Combination Index (CI)", "setting": "T24 cells, RAG1-40-31 0.5 nM + MMC 1000 nM", "value": 0.46}, {"measurement": "Combination Index (CI)", "setting": "T24 cells, RAG1-40-31 0.5 nM + MMC 10000 nM", "value": 1.06}, {"measurement": "Combination Index (CI)", "setting": "T24 cells, RAG1-40-31 0.5 nM + Valrubicin 10000 nM", "value": 0.4}, {"measurement": "Combination Index (CI)", "setting": "T24 cells, RAG1-40-31 0.5 nM + valrubicin 1 nM", "value": 2.71}, {"measurement": "Combination Index (CI)", "setting": "T24 cells, RAG1-40-31 0.5 nM + valrubicin 10 nM", "value": 6.02}, {"measurement": "Combination Index (CI)", "setting": "T24 cells, RAG1-40-31 0.5 nM + valrubicin 100 nM", "value": 8.68}, {"measurement": "Combination Index (CI)", "setting": "T24 cells, RAG1-40-31 0.5 nM + valrubicin 1000 nM", "value": 0.92}, {"measurement": "Combination Index (CI)", "setting": "T24 cells, RAG1-40-31 1 nM + MMC 1 nM", "value": 0.96}, {"measurement": "Combination Index (CI)", "setting": "T24 cells, RAG1-40-31 1 nM + MMC 10 nM", "value": 0.88}, {"measurement": "Combination Index (CI)", "setting": "T24 cells, RAG1-40-31 1 nM + MMC 100 nM", "value": 0.69}, {"measurement": "Combination Index (CI)", "setting": "T24 cells, RAG1-40-31 1 nM + MMC 1000 nM", "value": 0.41}, {"measurement": "Combination Index (CI)", "setting": "T24 cells, RAG1-40-31 1 nM + MMC 10000 nM", "value": 0.84}, {"measurement": "Combination Index (CI)", "setting": "T24 cells, RAG1-40-31 1 nM + Valrubicin 10000 nM", "value": 0.33}, {"measurement": "Combination Index (CI)", "setting": "T24 cells, RAG1-40-31 1 nM + valrubicin 1 nM", "value": 1.23}, {"measurement": "Combination Index (CI)", "setting": "T24 cells, RAG1-40-31 1 nM + valrubicin 10 nM", "value": 0.92}, {"measurement": "Combination Index (CI)", "setting": "T24 cells, RAG1-40-31 1 nM + valrubicin 100 nM", "value": 1.02}, {"measurement": "Combination Index (CI)", "setting": "T24 cells, RAG1-40-31 1 nM + valrubicin 1000 nM", "value": 0.93}, {"measurement": "Combination Index (CI)", "setting": "T24 cells, RAG1-40-31 5 nM + MMC 1 nM", "value": 0.61}, {"measurement": "Combination Index (CI)", "setting": "T24 cells, RAG1-40-31 5 nM + MMC 10 nM", "value": 0.60}, {"measurement": "Combination Index (CI)", "setting": "T24 cells, RAG1-40-31 5 nM + MMC 100 nM", "value": 0.45}, {"measurement": "Combination Index (CI)", "setting": "T24 cells, RAG1-40-31 5 nM + MMC 1000 nM", "value": 0.24}, {"measurement": "Combination Index (CI)", "setting": "T24 cells, RAG1-40-31 5 nM + MMC 10000 nM", "value": 0.46}, {"measurement": "Combination Index (CI)", "setting": "T24 cells, RAG1-40-31 5 nM + Valrubicin 10000 nM", "value": 0.12}, {"measurement": "Combination Index (CI)", "setting": "T24 cells, RAG1-40-31 5 nM + valrubicin 1 nM", "value": 0.73}, {"measurement": "Combination Index (CI)", "setting": "T24 cells, RAG1-40-31 5 nM + valrubicin 10 nM", "value": 0.59}, {"measurement": "Combination Index (CI)", "setting": "T24 cells, RAG1-40-31 5 nM + valrubicin 100 nM", "value": 0.99}, {"measurement": "Combination Index (CI)", "setting": "T24 cells, RAG1-40-31 5 nM + valrubicin 1000 nM", "value": 0.47}, {"measurement": "Combination Index (CI)", "setting": "T24 cells, RAG1-40-31 10 nM + MMC 1 nM", "value": 0.52}, {"measurement": "Combination Index (CI)", "setting": "T24 cells, RAG1-40-31 10 nM + MMC 10 nM", "value": 0.77}, {"measurement": "Combination Index (CI)", "setting": "T24 cells, RAG1-40-31 10 nM + MMC 100 nM", "value": 0.47}, {"measurement": "Combination Index (CI)", "setting": "T24 cells, RAG1-40-31 10 nM + MMC 1000 nM", "value": 0.19}, {"measurement": "Combination Index (CI)", "setting": "T24 cells, RAG1-40-31 10 nM + MMC 10000 nM", "value": 0.30}, {"measurement": "Combination Index (CI)", "setting": "T24 cells, RAG1-40-31 10 nM + Valrubicin 10000 nM", "value": 0.09}, {"measurement": "Combination Index (CI)", "setting": "T24 cells, RAG1-40-31 10 nM + valrubicin 1 nM", "value": 0.82}, {"measurement": "Combination Index (CI)", "setting": "T24 cells, RAG1-40-31 10 nM + valrubicin 10 nM", "value": 0.62}, {"measurement": "Combination Index (CI)", "setting": "T24 cells, RAG1-40-31 10 nM + valrubicin 100 nM", "value": 0.83}, {"measurement": "Combination Index (CI)", "setting": "T24 cells, RAG1-40-31 10 nM + valrubicin 1000 nM", "value": 0.63}, {"measurement": "Combination Index (CI)", "setting": "T24 cells, RAG1-40-31 25 nM + MMC 1 nM", "value": 0.92}, {"measurement": "Combination Index (CI)", "setting": "T24 cells, RAG1-40-31 25 nM + MMC 10 nM", "value": 1.38}, {"measurement": "Combination Index (CI)", "setting": "T24 cells, RAG1-40-31 25 nM + MMC 100 nM", "value": 0.73}, {"measurement": "Combination Index (CI)", "setting": "T24 cells, RAG1-40-31 25 nM + MMC 1000 nM", "value": 0.28}, {"measurement": "Combination Index (CI)", "setting": "T24 cells, RAG1-40-31 25 nM + MMC 10000 nM", "value": 0.36}, {"measurement": "Combination Index (CI)", "setting": "T24 cells, RAG1-40-31 25 nM + Valrubicin 10000 nM", "value": 0.1}, {"measurement": "Combination Index (CI)", "setting": "T24 cells, RAG1-40-31 25 nM + valrubicin 1 nM", "value": 0.97}, {"measurement": "Combination Index (CI)", "setting": "T24 cells, RAG1-40-31 25 nM + valrubicin 10 nM", "value": 1.25}, {"measurement": "Combination Index (CI)", "setting": "T24 cells, RAG1-40-31 25 nM + valrubicin 100 nM", "value": 1.25}, {"measurement": "Combination Index (CI)", "setting": "T24 cells, RAG1-40-31 25 nM + valrubicin 1000 nM", "value": 0.67}, {"measurement": "relative proliferation proportions of cells", "setting": "T24 cells, RAG1-40-31 25 nM and 50 nM + Mitomycin C 1, 10, 100, 1000 and 10000 nM", "value": "lower than 21%"}, {"measurement": "relative proliferation proportion of cells", "setting": "T24 cells, RAG1-40-31 25 nM and 50 nM + valrubicin 1, 10, 100, 1000 and 10000 nM", "value": "lower than 21%"}, {"measurement": "Combination Index (CI)", "setting": "T24 cells, RAG1-40-31 50 nM + MMC 1 nM", "value": 2.59}, {"measurement": "Combination Index (CI)", "setting": "T24 cells, RAG1-40-31 50 nM + MMC 10 nM", "value": 2.60}, {"measurement": "Combination Index (CI)", "setting": "T24 cells, RAG1-40-31 50 nM + MMC 100 nM", "value": 1.31}, {"measurement": "Combination Index (CI)", "setting": "T24 cells, RAG1-40-31 50 nM + MMC 1000 nM", "value": 0.50}, {"measurement": "Combination Index (CI)", "setting": "T24 cells, RAG1-40-31 50 nM + MMC 10000 nM", "value": 0.47}, {"measurement": "Combination Index (CI)", "setting": "T24 cells, RAG1-40-31 50 nM + Valrubicin 10000 nM", "value": 0.19}, {"measurement": "Combination Index (CI)", "setting": "T24 cells, RAG1-40-31 50 nM + valrubicin 1 nM", "value": 2.12}, {"measurement": "Combination Index (CI)", "setting": "T24 cells, RAG1-40-31 50 nM + valrubicin 10 nM", "value": 2.3}, {"measurement": "Combination Index (CI)", "setting": "T24 cells, RAG1-40-31 50 nM + valrubicin 100 nM", "value": 2.3}, {"measurement": "Combination Index (CI)", "setting": "T24 cells, RAG1-40-31 50 nM + valrubicin 1000 nM", "value": 1.04}, {"measurement": "relative proliferation proportions of cells", "setting": "T24 cells, RAG1-40-31 0.1-50 nM + Mitomycin C 1000 and 10000 nM", "value": "lower than 18%"}, {"measurement": "relative proliferation proportions of cells", "setting": "T24 cells, RAG1-40-31 0.1-50 nM + valrubicin 1000 nM and 10000 nM", "value": "lower than 60%"}, {"measurement": "relative proliferation proportions of cells", "setting": "T24 cells, RAG1-40-31 5-50 nM + Mitomycin C 1, 10, 100, 1000 and 10000 nM", "value": "lower than 40%"}, {"measurement": "relative proliferation proportions of cells", "setting": "T24 cells, RAG1-40-31 5-50 nM + valrubicin 1, 10, 100, 1000 and 10000 nM", "value": "lower than 40%"}, {"measurement": "effect of combined use with Mitomycin C or valrubicin, in words", "setting": "T24 tumor cells", "value": "synergistic effect"}]}
